Test [1] concerns JAK1/3 signaling to STAT6 in Ramos B cells. Briefly: IL4 stimulation of JAK1/3 signaling to STAT6 in Ramos B cells (pSTAT6 Y641, FACS). Type of test: cell-based. Particulars: Homo sapiens; for inhibition at 0.2 µM: 0.2 uM compound, read-out: IL-4/STAT6 in Ramos Percent Inhibition at 0.2 uM; for inhibition at 1 µM: 1.0 uM compound, read-out: IL-4/STAT6 in Ramos Percent Inhibition at 1.0 uM. The method, then:
IL4 stimulation of JAK1/3 signaling to STATE in Ramos B cells:
As an alternative strategy to measure effect of JAK3 inhibitors on JAK1/3 dependent cytokine signaling pathways, IL4 stimulation of the Ramos Burkett's B cell line is used. IL4 engages a receptor consisting of the IL4 receptor alpha chain and the common gamma chain. […] Ramos B cells are suspended in tissue culture media containing 10% fetal calf serum at 10×10̂6 cells/ml. 100 μl aliquots are pre-treated for 1 hour with various concentrations of compound, and then stimulated for 15 minutes with 15 ng IL4. The signaling reaction is terminated by fixing in 2% paraformaldehyde for 10 minutes at room temperature. Fixed cells are then washed and permeablized by suspension in 100% methanol at −80° C. Following overnight incubation at 4° C., cells are washed and resuspended in PBS containing 0.5% bovine serum albumin containing pSTAT6 Y641-PE conjugated antibody. After 1 hour incubation, cells are washed and the extent of STAT6 phosphorlyation in Ramos cells is measured by FACS analysis.

Another test deals with T1, JAK3 (Homo sapiens, UniProt P52333).
T1 construct: 5 μl of catalytic domain recombinant Kinase enzyme+Tyr peptide substrate (Invitrogen, CA); purchased Invitrogen
As to the kind of experiment: Z'-LYTE kinase assay JAK3. Type of test: biochemical. Put shortly: (§1)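 Read-out is FRET fluorescence between coumarin and fluorescein on a Tyr6 peptide, lost when the development protease cleaves unphosphorylated substrate. Kinase reaction used recombinant catalytic domain with ATP, 1 h at room temperature, 1% DMSO.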

The target of another test is T2, JAK2 (Homo sapiens, UniProt O60674).
T2 construct: 5 μl of catalytic domain recombinant Kinase enzyme+Tyr peptide substrate (Invitrogen, CA); purchased Invitrogen
Briefly: Z'-LYTE kinase assay JAK2. The class given is biochemical. Put shortly:
as §1

The target of a further test is T3, JAK1 (Homo sapiens, UniProt P23458).
T3 construct: 5 μl of catalytic domain recombinant Kinase enzyme+Tyr peptide substrate (Invitrogen, CA); purchased Invitrogen
Briefly: Z'-LYTE kinase assay JAK1. The class given is biochemical. In short, it runs like this: as §1

Broadly, the IC50 is the concentration at which inhibition is half-maximal. A higher IC50 goes with weaker potency in that assay.

T2 sequence (O60674 849-1124 limits assumed): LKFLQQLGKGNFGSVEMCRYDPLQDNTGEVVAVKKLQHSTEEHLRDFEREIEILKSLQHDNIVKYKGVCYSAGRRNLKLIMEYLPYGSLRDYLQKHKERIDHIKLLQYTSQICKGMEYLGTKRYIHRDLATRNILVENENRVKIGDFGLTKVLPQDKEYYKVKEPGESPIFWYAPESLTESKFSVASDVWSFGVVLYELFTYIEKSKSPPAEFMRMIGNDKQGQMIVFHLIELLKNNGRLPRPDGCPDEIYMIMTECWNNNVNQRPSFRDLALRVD
T3 sequence (P23458 875-1153 limits assumed): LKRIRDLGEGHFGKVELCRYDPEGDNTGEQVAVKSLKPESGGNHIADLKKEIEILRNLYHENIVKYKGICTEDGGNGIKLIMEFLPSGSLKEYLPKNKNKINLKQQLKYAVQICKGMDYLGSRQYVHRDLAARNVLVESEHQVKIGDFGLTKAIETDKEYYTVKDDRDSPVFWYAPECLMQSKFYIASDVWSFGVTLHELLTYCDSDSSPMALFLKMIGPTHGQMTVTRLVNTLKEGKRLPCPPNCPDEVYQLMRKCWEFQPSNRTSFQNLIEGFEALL
T1 sequence (P52333 822-1111 limits assumed): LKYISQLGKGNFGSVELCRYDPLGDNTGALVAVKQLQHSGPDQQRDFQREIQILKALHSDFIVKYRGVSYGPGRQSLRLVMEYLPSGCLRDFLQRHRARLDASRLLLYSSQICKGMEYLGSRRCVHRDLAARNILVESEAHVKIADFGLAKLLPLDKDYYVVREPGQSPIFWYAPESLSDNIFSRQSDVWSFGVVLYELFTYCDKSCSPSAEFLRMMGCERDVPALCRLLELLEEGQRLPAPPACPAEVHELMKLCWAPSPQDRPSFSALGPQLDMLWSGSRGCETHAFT

With `NC(=O)c1cnc(Nc2cccc(OCCN3CCOCC3)c2)cc1NC(CO)c1ccccc1` (stereo not drawn) [Example 230], in test [1], the inhibition at 0.2 µM was 21% and the inhibition at 1 µM was determined as 36%.

`CC(=O)N1CCN(c2ccc(Nc3cc(NC(CO)c4ccccc4)c(C(N)=O)cn3)cc2)CC1` (stereo not drawn) [Example 231]: in test [1], the inhibition at 0.2 µM came out at 13% and the inhibition at 1 µM turned out to be 16%.

In the case of `NC(=O)c1cnc(Nc2cccc(NC(=O)N3CCOCC3)c2)cc1NCc1cccnc1` [Example 232], in test [1], the inhibition at 0.2 µM came out at 4% and the inhibition at 1 µM was found to be 5%.

Consider `CC(=O)Nc1ccc(Nc2cc(NCc3cccc4[nH]ccc34)c(C(N)=O)cn2)cc1` [Example 472, 4-((1H-indol-4-yl)methylamino)-6-(4-acetamidophenylamino)nicotinamide], for which the half-inhibitory concentration (IC50) was under 1 nM against JAK3, 10 to 100 nM against JAK2 and 1 to 10 nM at JAK1.

`CC(=O)Nc1ccc(Nc2cc(NCc3cccc4cc[nH]c34)c(C(N)=O)cn2)cc1` [Example 473, 4-((1H-indol-7-yl)methylamino)-6-(4-acetamidophenylamino)nicotinamide]: the IC50 at JAK3 lay within 10 to 100 nM; against JAK2 it was 100 to 1000 nM; against JAK1, 100 to 1000 nM.

On to `COC(=O)N(C)c1ccc(Nc2cc(NCc3cccc4[nH]ccc34)c(C(N)=O)cn2)cc1` [Example 474, methyl 4-(4-((1H-indol-4-yl)methylamino)-5-carbamoylpyridin-2-ylamino)phenyl(methyl)carbamate], for which the IC50 lay within 1 to 10 nM at JAK3, 10 to 100 nM against JAK2 and 10 to 100 nM against JAK1.

As for `CCC(=O)N(C)c1ccc(Nc2cc(NCc3cccc4[nH]ccc34)c(C(N)=O)cn2)cc1` [Example 475, 4-((1H-indol-4-yl)methylamino)-6-(4-(N-methylpropionamido)phenylamino)nicotinamide], the IC50 fell in the range of 1 to 10 nM against JAK3, 10 to 100 nM against JAK2 and 10 to 100 nM against JAK1.

Regarding `CN(C(=O)C1CC1)c1ccc(Nc2cc(NCc3cccc4[nH]ccc34)c(C(N)=O)cn2)cc1` [Example 476, 4-((1H-indol-4-yl)methylamino)-6-(4-(N-methylcyclopropanecarboxamido)phenylamino)nicotinamide], the IC50 against JAK3 fell in the range of 1 to 10 nM; against JAK2, 10 to 100 nM; at JAK1, 10 to 100 nM.

`CCC(=O)N(C)c1ccc(Nc2cc(NCc3cccc4cc[nH]c34)c(C(N)=O)cn2)cc1` [Example 477, 4-((1H-indol-7-yl)methylamino)-6-(4-(N-methylpropionamido)phenylamino)nicotinamide]: the results for the IC50 against JAK3, against JAK2 and on JAK1 were 10 to 100 nM, 100 to 1000 nM and over 1000 nM, respectively.

Take `CN(C(=O)C1CC1)c1ccc(Nc2cc(NCc3cccc4cc[nH]c34)c(C(N)=O)cn2)cc1` [Example 478, 4-((1H-indol-7-yl)methylamino)-6-(4-(N-methylcyclopropanecarboxamido)phenylamino)nicotinamide]: the values for the IC50 against JAK3, against JAK2 and on JAK1 were 100 to 1000 nM, 100 to 1000 nM and over 1000 nM, respectively.

`COC(=O)N(C)c1ccc(Nc2cc(NCc3cncc(F)c3)c(C(N)=O)cn2)cc1` [Example 479]: the IC50 against JAK3 fell in the range of 10 to 100 nM; on JAK2 it was 100 to 1000 nM; against JAK1, 100 to 1000 nM.

For the compound `CCC(=O)N(C)c1ccc(Nc2cc(NCc3cncc(F)c3)c(C(N)=O)cn2)cc1` [Example 480, 4-((5-fluoropyridin-3-yl)methylamino)-6-(4-(N-methylpropionamido)phenylamino)nicotinamide], the IC50 on JAK3 was 10 to 100 nM; at JAK2 it was 100 to 1000 nM; at JAK1, over 1000 nM.

As for `CN(C(=O)C1CC1)c1ccc(Nc2cc(NCc3cncc(F)c3)c(C(N)=O)cn2)cc1` [Example 481, 4-((5-fluoropyridin-3-yl)methylamino)-6-(4-(N-methylcyclopropanecarboxamido)phenylamino)nicotinamide], the half-maximal inhibitory concentration (IC50) at JAK3 lay within 10 to 100 nM; at JAK2 it was 100 to 1000 nM; on JAK1, 100 to 1000 nM.

On to `COC(=O)N(C)c1ccc(Nc2cc(NCc3cccc4cc[nH]c34)c(C(N)=O)cn2)cc1` [Example 482, methyl 4-(4-((1H-indol-7-yl)methylamino)-5-carbamoylpyridin-2-ylamino)phenyl(methyl)carbamate], for which the values for the IC50 against JAK3, at JAK2 and against JAK1 were 10 to 100 nM, over 1000 nM and over 1000 nM, respectively.

Regarding `CC(=O)N(C)c1ccc(Nc2cc(NCc3cncc(F)c3)c(C(N)=O)cn2)cc1` [Example 483, 4-((5-fluoropyridin-3-yl)methylamino)-6-(4-(N-methylacetamido)phenylamino)nicotinamide], the figures for the IC50 at JAK3, at JAK2 and at JAK1 were 10 to 100 nM, 100 to 1000 nM and over 1000 nM, respectively.

Regarding `CC(=O)Nc1ccc(Nc2cc(NCc3cncc(F)c3)c(C(N)=O)cn2)cc1` [Example 484, 6-(4-acetamidophenylamino)-4-((5-fluoropyridin-3-yl)methylamino)nicotinamide], the 50% inhibitory concentration (IC50) fell in the range of 1 to 10 nM against JAK3, 100 to 1000 nM against JAK2 and 100 to 1000 nM against JAK1.

As to `CC(=O)N(C)c1ccc(Nc2cc(NCc3cccc(F)n3)c(C(N)=O)cn2)cc1` [Example 485, 4-((6-fluoropyridin-2-yl)methylamino)-6-(4-(N-methylacetamido)phenylamino)nicotinamide], the IC50 at JAK3 was 10 to 100 nM; at JAK2, 100 to 1000 nM; on JAK1 it was over 1000 nM.

Turning to `CC(=O)Nc1ccc(Nc2cc(NCc3cccc(F)n3)c(C(N)=O)cn2)cc1` [Example 486, 6-(4-acetamidophenylamino)-4-((6-fluoropyridin-2-yl)methylamino)nicotinamide], the values for the IC50 against JAK3, at JAK2 and on JAK1 were 10 to 100 nM, 100 to 1000 nM and 100 to 1000 nM, respectively.

As to `COC(=O)N(C)c1ccc(Nc2cc(NCc3cccc(F)n3)c(C(N)=O)cn2)cc1` [Example 487], the IC50 on JAK3 is 10 to 100 nM; at JAK2 it was 100 to 1000 nM; on JAK1 it was 100 to 1000 nM.

On to `CCC(=O)N(C)c1ccc(Nc2cc(NCc3cccc(F)n3)c(C(N)=O)cn2)cc1` [Example 488, 4-((6-fluoropyridin-2-yl)methylamino)-6-(4-(N-methylpropionamido)phenylamino)nicotinamide], for which the IC50 against JAK3 was in the range of 10 to 100 nM; against JAK2 it was 100 to 1000 nM; at JAK1 it was 100 to 1000 nM.

For the compound `CN(C(=O)C1CC1)c1ccc(Nc2cc(NCc3cccc(F)n3)c(C(N)=O)cn2)cc1` [Example 489, 4-((6-fluoropyridin-2-yl)methylamino)-6-(4-(N-methylcyclopropanecarboxamido)phenylamino)nicotinamide], the IC50 against JAK3 was in the range of 10 to 100 nM; against JAK2, 100 to 1000 nM; against JAK1, 100 to 1000 nM.

For `CCC(=O)N1CC(c2ccc(Nc3cc(NCc4cccc(F)n4)c(C(N)=O)cn3)cc2)C1` [Example 490, 4-((6-fluoropyridin-2-yl)methylamino)-6-(4-(1-propionylazetidin-3-yl)phenylamino)nicotinamide], the IC50 against JAK3 was in the range of 10 to 100 nM; on JAK2 it was 100 to 1000 nM; against JAK1, 100 to 1000 nM.

Turning to `CCC(=O)N1CC(c2ccc(Nc3cc(NCc4cccc5ccsc45)c(C(N)=O)cn3)cc2)C1` [Example 491, 4-(benzo[b]thiophen-7-ylmethylamino)-6-(4-(1-propionylazetidin-3-yl)phenylamino)nicotinamide], the IC50 lay within 1 to 10 nM at JAK3, 10 to 100 nM on JAK2 and 100 to 1000 nM against JAK1.

Take `CCC(=O)N1CC(c2ccc(Nc3cc(NCc4cccc5[nH]ccc45)c(C(N)=O)cn3)cc2)C1` [Example 492, 4-((1H-indol-4-yl)methylamino)-6-(4-(1-propionylazetidin-3-yl)phenylamino)nicotinamide]: the IC50 at JAK3 was 1 to 10 nM; at JAK2 it was 1 to 10 nM; against JAK1, 10 to 100 nM.

Consider `COCC(=O)N1CC(c2ccc(Nc3cc(NCc4cccc(F)n4)c(C(N)=O)cn3)cc2)C1` [Example 493, 4-((6-fluoropyridin-2-yl)methylamino)-6-(4-(1-(2-methoxyacetyl)azetidin-3-yl)phenylamino)nicotinamide], for which the IC50 lay in the range of 10 to 100 nM against JAK3, 100 to 1000 nM at JAK2 and 100 to 1000 nM against JAK1.

For the compound `COCC(=O)N1CC(c2ccc(Nc3cc(NCc4cccc5[nH]ccc45)c(C(N)=O)cn3)cc2)C1` [Example 494, 4-((1H-indol-4-yl)methylamino)-6-(4-(1-(2-methoxyacetyl)azetidin-3-yl)phenylamino)nicotinamide], the figures for the half-inhibitory concentration (IC50) at JAK3, at JAK2 and against JAK1 were under 1 nM, 1 to 10 nM and 1 to 10 nM, respectively.

Turning to `COCC(=O)N1CC(c2ccc(Nc3cc(NCc4cccc5ccsc45)c(C(N)=O)cn3)cc2)C1` [Example 495, 4-(benzo[b]thiophen-7-ylmethylamino)-6-(4-(1-(2-methoxyacetyl)azetidin-3-yl)phenylamino)nicotinamide], the IC50 against JAK3 was 1 to 10 nM; against JAK2, 10 to 100 nM; against JAK1, 100 to 1000 nM.

These data come from US20150353495A1 (PORTOLA PHARMACEUTICALS, INC., priority 2010, published 2015).
